Reference: patent US10913738B2 (BRISTOL-MYERS SQUIBB COMPANY, priority 2017, dated 2021)
Like-named read-outs stand apart in the source and are kept apart here.

Legend:
[1] = molecular target: T1, His-GST-TVMV-hRIPK1(1-324) (Homo sapiens, UniProt Q13546); assay: RIPK1 HTRF Binding Assay
T1 construct: The coding region of human RIPK1(1-324) flanked by NdeI site at 5′ end; made in house; host or cells: Spodoptera frugiperda (Sf9) insect cells, baculovirus
T1 sequence (Q13546 1-324): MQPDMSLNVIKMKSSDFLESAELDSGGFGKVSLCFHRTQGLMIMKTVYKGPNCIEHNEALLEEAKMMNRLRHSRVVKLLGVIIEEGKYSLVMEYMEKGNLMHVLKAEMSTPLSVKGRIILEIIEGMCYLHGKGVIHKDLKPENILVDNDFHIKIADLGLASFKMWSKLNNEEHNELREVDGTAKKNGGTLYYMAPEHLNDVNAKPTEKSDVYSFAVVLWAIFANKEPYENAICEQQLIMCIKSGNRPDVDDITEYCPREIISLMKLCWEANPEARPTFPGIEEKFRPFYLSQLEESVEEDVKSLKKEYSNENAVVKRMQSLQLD

[2] = test system: MLKL phosphorylation in HT29-L23 human colorectal adenocarcinoma cells; assay: MLKL Phosphorylation High-Content Assay; assay type: cell-based; settings: Homo sapiens
Outline: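 IC50 and Ymax obtained by 4-parameter logistic fitting of MLKL phosphorylation, measured as mean circ-ring average intensity ratio from high-content images. Staining used an anti-phospho-S358 MLKL antibody overnight at 4° C., following six-hour cell incubation at 37° C.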

[3] = x marks IC50 class 20-200 nM, read-out: RIPK1 HTRF binding 20-200 nM
[4] = x marks IC50 class 20-200 nM, read-out: pMLKL cell activity 20-200 nM
[5] = x marks IC50 class <20 nM, read-out: RIPK1 HTRF binding <20 nM
[6] = x marks IC50 class <20 nM, read-out: pMLKL cell activity <20 nM
[7] = x marks IC50 class >200 nM, read-out: pMLKL cell activity >200 nM

Compound: COc1ncc(-c2ccn3nc(N)nc3c2)cc1C(=O)NCc1ccccc1O[C@@H]1C[C@H]2CC[C@@H]1C2 [Example 30, 5-{2-Amino-[1,2,4]triazolo[1,5-a]pyridin-7-yl}-N-({2-[(1R,2R,4S)-bicyclo[2.2.1]heptan-2-yloxy]phenyl}methyl)-2-methoxypyridine-3-carboxamide]
- IC50 [1, 3]: 20 to 200 nM
- IC50 [2, 4]: 20 to 200 nM

Compound: COc1ncc(-c2ccn3nc(N)nc3c2)cc1C(=O)NCc1cc(F)ccc1OC(C)C [Example 31, 5-{2-Amino-[1,2,4]triazolo[1,5-a]pyridin-7-yl}-N-{[5-fluoro-2-(propan-2-yloxy)phenyl]methyl}-2-methoxypyridine-3-carboxamide]
- IC50 [1, 5]: < 20 nM
- IC50 [2, 4]: 20 to 200 nM

Compound: COc1ncc(-c2ccn3nc(N)nc3c2)cc1C(=O)NCc1ccccc1OC1CCC(C)C1 (stereo not drawn) [Example 32, 5-{2-Amino-[1,2,4]triazolo[1,5-a]pyridin-7-yl}-2-methoxy-N-({2-[(3-methylcyclopentyl)oxy]phenyl}methyl)pyridine-3-carboxamide]
- IC50 [1, 5]: < 20 nM
- IC50 [2, 6]: < 20 nM

Compound: COc1nc(C)c(-c2ccn3nc(N)nc3c2)cc1C(=O)NCc1ncccc1OCC1CC1 [Example 33, 5-{2-Amino-[1,2,4]triazolo[1,5-a]pyridin-7-yl}-N-{[3-(cyclopropylmethoxy)pyridin-2-yl]methyl}-2-methoxy-6-methylpyridine-3-carboxamide]
- IC50 [1, 5]: < 20 nM
- IC50 [2, 4]: 20 to 200 nM

Compound: COc1nc(C)c(-c2ccn3nc(N)nc3c2)cc1C(=O)NCc1cccnc1OC1CCCC1 [Example 34, 5-{2-Amino-[1,2,4]triazolo[1,5-a]pyridin-7-yl}-N-{[2-(cyclopentyloxy)pyridin-3-yl]methyl}-2-methoxy-6-methylpyridine-3-carboxamide]
- IC50 [1, 5]: < 20 nM
- IC50 [2, 6]: < 20 nM

Compound: Cc1ncc(-c2ccn3nc(N)nc3c2)cc1C(=O)NCc1ccccc1OC(C)C [Example 35, 5-{2-Amino-[1,2,4]triazolo[1,5-a]pyridin-7-yl}-2-methyl-N-{[2-(propan-2-yloxy)phenyl]methyl}pyridine-3-carboxamide]
- IC50 [1, 3]: 20 to 200 nM
- IC50 [2, 4]: 20 to 200 nM

Compound: COc1ncc(-c2ccn3nc(N)nc3c2)cc1C(=O)NCc1ncccc1OCC1CCC1 [Example 37, 5-{2-Amino-[1,2,4]triazolo[1,5-a]pyridin-7-yl}-N-{[3-(cyclobutylmethoxy)pyridin-2-yl]methyl}-2-methoxypyridine-3-carboxamide]
- IC50 [1, 5]: < 20 nM
- IC50 [2, 4]: 20 to 200 nM

Compound: Cc1ncc(-c2ccn3nc(N)nc3c2)cc1C(=O)NCc1ccccc1OCC1CCCC1 [Example 39, 5-{2-Amino-[1,2,4]triazolo[1,5-a]pyridin-7-yl}-N-{[2-(cyclopentylmethoxy)phenyl]methyl}-2-methylpyridine-3-carboxamide]
- IC50 [1, 5]: < 20 nM
- IC50 [2, 4]: 20 to 200 nM

Compound: Nc1nc2cc(-c3cncc(C(=O)NCc4c(F)cccc4OC4CCCC4)c3)ccn2n1 [Example 40, 5-{2-Amino-[1,2,4]triazolo[1,5-a]pyridin-7-yl}-N-{[2-(cyclopentyloxy)-6-fluorophenyl]methyl}pyridine-3-carboxamide]
- IC50 [1, 5]: < 20 nM
- IC50 [2, 4]: 20 to 200 nM

Compound: Nc1nc2cc(-c3cncc(C(=O)NCc4cc(F)ccc4OC4CCCC4)c3)ccn2n1 [Example 41, 5-{2-Amino-[1,2,4]triazolo[1,5-a]pyridin-7-yl}-N-{[2-(cyclopentyloxy)-5-fluorophenyl]methyl}pyridine-3-carboxamide]
- IC50 [1, 5]: < 20 nM
- IC50 [2, 4]: 20 to 200 nM

Compound: Nc1nc2cc(-c3cncc(C(=O)NCc4ccccc4OCC4CC4)c3)ccn2n1 [Example 42, 5-{2-Amino-[1,2,4]triazolo[1,5-a]pyridin-7-yl}-N-{[2-(cyclopropylmethoxy)phenyl]methyl}pyridine-3-carboxamide]
- IC50 [1, 5]: < 20 nM
- IC50 [2, 6]: < 20 nM

Compound: Nc1nc2cc(-c3cncc(C(=O)NCc4ccccc4OC4CCCC4)c3)ccn2n1 [Example 43, 5-{2-Amino-[1,2,4]triazolo[1,5-a]pyridin-7-yl}-N-{[2-(cyclopentyloxy)phenyl]methyl}pyridine-3-carboxamide]
- IC50 [1, 5]: < 20 nM
- IC50 [2, 4]: 20 to 200 nM

Compound: COc1ncc(-c2ccn3nc(N)nc3c2)cc1C(=O)NCc1ccccc1OC1CCCCC1 [Example 44, 5-{2-Amino-[1,2,4]triazolo[1,5-a]pyridin-7-yl}-N-{[2-(cyclohexyloxy)phenyl]methyl}-2-methoxypyridine-3-carboxamide]
- IC50 [1, 5]: < 20 nM
- IC50 [2, 4]: 20 to 200 nM

Compound: COc1ncc(-c2ccn3nc(N)nc3c2)cc1C(=O)NCc1cccc(OC2CCCC2)c1 [Example 45, 5-{2-Amino-[1,2,4]triazolo[1,5-a]pyridin-7-yl}-N-{[3-(cyclopentyloxy)phenyl]methyl}-2-methoxypyridine-3-carboxamide]
- IC50 [1, 3]: 20 to 200 nM
- IC50 [2, 7]: > 200 nM

Compound: COc1ncc(-c2ccn3nc(N)nc3c2)cc1C(=O)NCc1cccc(OCC2CCC2)c1 [Example 46, 5-{2-Amino-[1,2,4]triazolo[1,5-a]pyridin-7-yl}-N-{[3-(cyclobutylmethoxy)phenyl]methyl}-2-methoxypyridine-3-carboxamide]
- IC50 [1, 3]: 20 to 200 nM
- IC50 [2, 7]: > 200 nM

Compound: COc1ncc(-c2ccn3nc(N)nc3c2)cc1C(=O)NCc1cccc(OCC2CC2)c1 [Example 47, 5-{2-Amino-[1,2,4]triazolo[1,5-a]pyridin-7-yl}-N-{[3-(cyclopropylmethoxy)phenyl]methyl}-2-methoxypyridine-3-carboxamide]
- IC50 [1, 3]: 20 to 200 nM
- IC50 [2, 7]: > 200 nM

Compound: Nc1nc2cc(-c3cnc(N)c(C(=O)NCc4c(F)cccc4OC4CCCC4)c3)ccn2n1 [Example 48, 2-Amino-5-{2-amino-[1,2,4]triazolo[1,5-a]pyridin-7-yl}-N-{[2-(cyclopentyloxy)-6-fluorophenyl]methyl}pyridine-3-carboxamide]
- IC50 [1, 5]: < 20 nM
- IC50 [2, 6]: < 20 nM

Compound: Nc1nc2cc(-c3cnc(N)c(C(=O)NCc4ccccc4OCC4CCC4)c3)ccn2n1 [Example 49, 2-Amino-5-{2-amino-[1,2,4]triazolo[1,5-a]pyridin-7-yl}-N-{[2-(cyclobutylmethoxy)phenyl]methyl}pyridine-3-carboxamide]
- IC50 [1, 5]: < 20 nM
- IC50 [2, 4]: 20 to 200 nM

Compound: COc1ncc(-c2ccn3nc(N)nc3c2)cc1C(=O)NCc1cccc(F)c1OC1CCCC1 [Example 50, 5-{2-Amino-[1,2,4]triazolo[1,5-a]pyridin-7-yl}-N-{[2-(cyclopentyloxy)-3-fluorophenyl]methyl}-2-methoxypyridine-3-carboxamide]
- IC50 [1, 5]: < 20 nM
- IC50 [2, 4]: 20 to 200 nM

Compound: COc1ncc(-c2ccn3nc(N)nc3c2)cc1C(=O)NCc1ccc(F)cc1OC1CCCC1 [Example 51, 5-{2-Amino-[1,2,4]triazolo[1,5-a]pyridin-7-yl}-N-{[2-(cyclopentyloxy)-4-fluorophenyl]methyl}-2-methoxypyridine-3-carboxamide]
- IC50 [1, 5]: < 20 nM
- IC50 [2, 4]: 20 to 200 nM

Compound: COc1ncc(-c2ccn3nc(N)nc3c2)cc1C(=O)NCc1c(F)cccc1OC1CCCC1 [Example 52, 5-{2-Amino-[1,2,4]triazolo[1,5-a]pyridin-7-yl}-N-{[2-(cyclopentyloxy)-6-fluorophenyl]methyl}-2-methoxypyridine-3-carboxamide]
- IC50 [1, 5]: < 20 nM
- IC50 [2, 6]: < 20 nM

Compound: Nc1nc2cc(-c3cnc(N)c(C(=O)NCc4c(F)cccc4OCC4CC4)c3)ccn2n1 [Example 53, 2-Amino-5-{2-amino-[1,2,4]triazolo[1,5-a]pyridin-7-yl}-N-{[2-(cyclopropylmethoxy)-6-fluorophenyl]methyl}pyridine-3-carboxamide]
- IC50 [1, 5]: < 20 nM
- IC50 [2, 4]: 20 to 200 nM

Compound: Nc1nc2cc(-c3cnc(N)c(C(=O)NCc4ccccc4OC4CCCC4)c3)ccn2n1 [Example 54, 2-Amino-5-{2-amino-[1,2,4]triazolo[1,5-a]pyridin-7-yl}-N-{[2-(cyclopentyloxy)phenyl]methyl}pyridine-3-carboxamide]
- IC50 [1, 5]: < 20 nM
- IC50 [2, 4]: 20 to 200 nM

Compound: CC(C)Oc1ccccc1CNC(=O)c1cc(-c2ccn3nc(N)nc3c2)cnc1N [Example 55, 2-Amino-5-{2-amino-[1,2,4]triazolo[1,5-a]pyridin-7-yl}-N-{[2-(propan-2-yloxy)phenyl]methyl}pyridine-3-carboxamide]
- IC50 [1, 5]: < 20 nM
- IC50 [2, 4]: 20 to 200 nM

Compound: Nc1nc2cc(-c3cnc(N)c(C(=O)NCc4ccccc4OCC4CC4)c3)ccn2n1 [Example 56, 2-Amino-5-{2-amino-[1,2,4]triazolo[1,5-a]pyridin-7-yl}-N-{[2-(cyclopropylmethoxy)phenyl]methyl}pyridine-3-carboxamide]
- IC50 [1, 5]: < 20 nM
- IC50 [2, 4]: 20 to 200 nM

Compound: CNc1ncc(-c2ccn3nc(N)nc3c2)cc1C(=O)NCc1ccccc1Sc1ccccc1CO [Example 57]
- IC50 [1, 5]: < 20 nM
- IC50 [2, 4]: 20 to 200 nM

Compound: Nc1nc2cc(-c3cncc(C(=O)NCc4ccccc4Sc4ccccc4CO)c3)ccn2n1 [Example 59, 5-{2-Amino-[1,2,4]triazolo[1,5-a]pyridin-7-yl}-N-{[(2-[2-(hydroxymethyl)phenyl]sulfanyl}phenyl)methyl]pyridine-3-carboxamide]
- IC50 [1, 5]: < 20 nM
- IC50 [2, 4]: 20 to 200 nM
